{
  "source": "paper PMC7995890",
  "about": "“Inhibition of Phosphodiesterase 5 Promotes the Aromatase-Mediated Estrogen Biosynthesis in Osteoblastic Cells by Activation of cGMP/PKG/SHP2 Pathway” (Frontiers in Endocrinology, 2021)",
  "molecular_target": "PDE5A (Homo sapiens, UniProt O76074)",
  "assay": "PDE-Glo assay with purified recombinant human PDE5A; supported by cellular thermal shift assay in HEK293T lysate",
  "type": "biochemical",
  "data": [
    {"smiles": "COc1ccc(-c2oc3c(CC=C(C)C)c(OCc4ccccc4)cc(O)c3c(=O)c2O)cc1", "note": "[compound 14, 7-O-benzylicaritin]", "values": [
      {"measurement": "IC50", "value": 9.91, "unit": "µM"}
    ]}
  ]
}
